US12234477B2, “Scalable primate pluripotent stem cell aggregate suspension culture” (ViaCyte, Inc., priority 2008, dated 2025)
Entries after “also recorded” stand apart in the source; their conditions may differ.

How the values were obtained:
[1] = system: BG02 hESCs; test: Proliferation of hESCs growing in conditioned medium (CM) with AG825; type: cell-based
Description: FIGS. 6A-6F depict the inhibition of proliferation of BG02 cells grown in conditioned media (CM). […] The mean and range of normalized relative intensity is plotted (right).
(§1) Colony and cell-counting assays confirmed that LongR3-IGF1 and HRG played the major roles in self-renewal and proliferation in the context of one of the embodiments of the present invention (FIG. 6D, FIG. 6E). Phosphorylation of IGF1R, IR, […], ErbB2, and ErbB3 was also observed in both steady-state DC-HAIF cultures, and in starved cultures that were pulsed with DC-HAIF (FIG. 6F).

[2] = target: T1, ErbB2 (Homo sapiens, UniProt P04626); test: Western blotting of ErbB2 autophosphorylation in starved/heregulin pulsed hESCs in DC-HAIF; type: cell-based
T1 construct: endogenous in cells; host or cells: human embryonic stem cells (hESCs) grown in DC-HAIF
T1 sequence (P04626 23-1255): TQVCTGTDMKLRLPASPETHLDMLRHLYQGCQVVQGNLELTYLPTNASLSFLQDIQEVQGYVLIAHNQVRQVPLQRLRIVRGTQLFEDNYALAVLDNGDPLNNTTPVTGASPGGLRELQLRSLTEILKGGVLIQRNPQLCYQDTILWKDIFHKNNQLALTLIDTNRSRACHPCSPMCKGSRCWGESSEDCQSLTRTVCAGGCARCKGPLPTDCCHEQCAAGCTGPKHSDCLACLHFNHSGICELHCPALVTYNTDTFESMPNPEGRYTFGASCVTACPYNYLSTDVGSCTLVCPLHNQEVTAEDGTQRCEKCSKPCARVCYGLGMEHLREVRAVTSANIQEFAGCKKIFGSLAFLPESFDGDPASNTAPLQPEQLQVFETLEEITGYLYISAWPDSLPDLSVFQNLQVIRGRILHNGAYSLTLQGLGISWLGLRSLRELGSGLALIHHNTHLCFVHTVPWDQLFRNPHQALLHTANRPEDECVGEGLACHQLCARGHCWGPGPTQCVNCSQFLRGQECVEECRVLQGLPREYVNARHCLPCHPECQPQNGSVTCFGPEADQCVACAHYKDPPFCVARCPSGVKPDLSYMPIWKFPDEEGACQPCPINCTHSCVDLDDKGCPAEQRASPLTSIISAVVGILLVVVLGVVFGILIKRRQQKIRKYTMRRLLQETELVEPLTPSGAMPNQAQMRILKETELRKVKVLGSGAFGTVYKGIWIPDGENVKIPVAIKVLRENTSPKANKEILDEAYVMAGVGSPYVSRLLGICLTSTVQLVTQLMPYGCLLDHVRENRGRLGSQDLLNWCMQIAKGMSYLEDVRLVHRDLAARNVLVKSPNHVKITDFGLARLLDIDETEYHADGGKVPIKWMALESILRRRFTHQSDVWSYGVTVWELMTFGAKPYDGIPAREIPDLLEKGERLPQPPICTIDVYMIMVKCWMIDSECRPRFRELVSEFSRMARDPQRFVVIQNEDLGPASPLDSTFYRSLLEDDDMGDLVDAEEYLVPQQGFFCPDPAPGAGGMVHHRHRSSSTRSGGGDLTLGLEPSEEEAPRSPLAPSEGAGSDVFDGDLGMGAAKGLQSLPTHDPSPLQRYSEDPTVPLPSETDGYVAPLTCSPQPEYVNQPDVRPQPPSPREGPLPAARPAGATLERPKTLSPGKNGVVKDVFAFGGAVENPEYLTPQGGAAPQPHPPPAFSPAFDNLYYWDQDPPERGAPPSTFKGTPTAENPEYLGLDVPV
Description: as §1

[3] = system: R1 mouse ES cells; test: Inhibition of ErbB1 and ErbB2 signaling in mouse ES cells, alkaline phosphatase staining; type: cell-based
Procedure: AG1478 and AG879 were used to examine the role of HRG/ErbB signaling in mouse ES cells. R1 mouse ES cells were maintained in standard conditions in DMEM, 10% FBS, 10% KSR, 0.5 U/mL penicillin, 0.5 U/mL streptomycin, 1×NEAA, 1 mM sodium pyruvate, 1000 U/mL LIF (ESGRO), 0.1 mM β-ME, and were passaged with 0.5% trypsin/EDTA. 2×10^5 cells/well were plated in 6 well trays on […]™ diluted at 1:1000. The day after plating, DMSO (carrier control), 1-50 μM AG1478, or 1-50 μM AG879 was added with fresh medium. The cells were cultured an additional 8 days, with daily media changes. The cultures were then fixed and stained for alkaline phosphatase activity.

[4] = system: BG01v cells; test: Inhibition of proliferation of BG01v cells by ErbB tyrosine kinase inhibitors, alkaline phosphatase staining; type: cell-based
Procedure: To examine the effect of known inhibitors of ErbB tyrosine kinases in hESCs, BG01v cells were plated in 6 well trays on […]™ diluted at 1:1000, in defined culture medium (DC) containing 100 ng/mL LongR3-IGF1, 8 ng/mL FGF2 and 1 ng/mL Activin A. On the next day, DMSO (carrier control), 50 nM-20 μM AG1478 (an ErbB1 inhibitor), or 100 nM-20 μM AG879 (an ErbB2 inhibitor) was added with fresh medium. The cells were cultured for an additional 5 days, with daily media changes. The cultures were then fixed and stained for alkaline phosphatase activity.

[5] = system: ES cells; test: Suspension cultures in various media, cell counting; type: cell-based; conditions: in all conditions (HAIF, HAI, HI)
Procedure: To determine if suspensions of ES cells could be cultured in the absence of FGF2 and/or Activin A, ES cells were cultured in a variety of media, with and without these factors. […] In addition, the cells in each media were successfully passaged with no morphological signs of differentiation.

[6] = system: hES-derived pancreatic epithelial and endocrine type cells; test: Re-aggregation of dissociated stage 4 or stage 5 adherent cultures; type: cell-based, human; conditions: 10 μM
Procedure: Adherent cultures at either stage 4 (about d10-d14 into the differentiation protocol; pancreatic epithelial and endocrine type cells) or stage 5 (about day 16 to day 30 into the differentiation protocol; endocrine precursor and endocrine cells) were similarly dissociated into single cells, counted, and pelleted. The cell pellet was then resuspended in DMEM CMRL supplemented Pen/Strep and GLUTAMAX™, and 1X B27-supplement and DNase (50-100 μg/mL, Roche Diagnostics) and 0-2% FBS. […] Cells were equally distributed into 6-well plates and placed on a rotating platform at 100 rpm to 140 rpm form 4 hours to overnight substantially as described above.

[7] = system: BG02 cells; test: Suspension aggregates of BG02 cells in DC-HAIF with and without Y27632, cell counting; type: cell-based, human
Procedure: To attenuate the loss of cells after initial passaging in suspension, an inhibitor of apoptosis was added to the medium. Cells were passaged as in Example 12, except that Y-27632, an inhibitor of p160-Rho-associated coiled-coil kinase (ROCK), was added to the medium.
Suspension aggregates of BG02 cells were formed by seeding 2×10^6 single cells in 6-well dishes in 3 mL DC-HAIF medium, at 100 rpm on a rotating platform in an incubator (Table 4, Experiment A). 10 μM Y27632 ROCK inhibitor was added to test wells for the course of the experiment and the cultures observed daily and counted after 24 hours (day 1) and after 4 or 5 days. […] Cell counting confirmed that more viable cells were present in the presence of inhibitor (Table 4, Experiment A). This difference in cell number persisted throughout the course of the culture period, with more cells also observed on day 4, compared to cultures without inhibitor. As with previous suspension culture experiments, cells exposed to Y27632 could also be serially passaged, and maintained in an undifferentiated state (not shown). […]
Because of the enhanced survival and aggregation observed in the presence of Y27632, an experiment was performed to examine if it was possible to reduce the number of cells used to seed suspension cultures (Table 4, Experiment C). […] To determine if addition of a ROCK inhibitor would allow cell seeding at lower densities, a range of cell concentrations (from about 2×10^6 total cells down to about 1×10^5 total cells was used to seed suspension cultures in 6-well trays cells in 3 mL DC-HAIF. 10 μM Y27632 was added to all conditions, and the cell number and viability assessed on day 5. Successful aggregation and expansion was observed even at low seeding densities. An approximately 13 fold expansion of viable cells was observed even in cultures that were only seeded with 1×10^5 cells. Inhibition of ROCK with Y27632 therefore facilitated initial survival of hESCs at much lower densities in this suspension system.

[8] = system: hESCs; test: hESC proliferation at physiological levels of insulin and IGF1, cell counting; type: cell-based, human; conditions: titrated about 0.2 to about 200 ng/mL, counting after 5 days
Procedure: Essentially all of the reported culture conditions for hESCs to date include supraphysiological levels of insulin, which can stimulate both IR and IGF1R. To distinguish the activities that insulin and insulin-substitutes exert, compared to IGF1, hESCs are cultured in defined media conditions in physiological levels of these growth factors. The concentrations of insulin and IGF1 are titrated from about 0.2 to about 200 ng/mL and cell proliferation is monitored by counting cells after 5 days. Cultures that expand successfully are serially passaged 5 times.

[9] = system: hES-derived cell aggregates; test: QPCR of endocrine progenitor markers after stage 3 with different noggin concentrations; type: cell-based, human; conditions: lower concentration (25 ng/mL vs 50 ng/mL) in stage 3; any given cell density
Procedure: Human ES cell aggregates and hES-derived cell aggregates, including d0 cell aggregates produced directly in differentiation media, were generated substantially as described above. After about five (5) days of differentiation through stages 1 and 2, the differentiating cell aggregates were pooled and re-aliquoted into individual wells at different seeding densities, e.g., a 28 mL suspension of foregut endoderm stage cell aggregate suspension was seeded or re-aliquoted at 4, 6, 8 or 10 mL per well (a 2.5-fold range of cell densities). This cell distribution was carried out in duplicate and one set of wells was fed with a stage 3 media (DMEM/PenStrep/GLUTAMAX™+1% B27 supplement (vol/vol)+0.25 uM KAAD-cyclopamine+3 nM TTNPB) containing noggin at 50 ng/mL and the other set of wells contained noggin at 25 ng/mL. Stage 3 proceeded for 3 days with daily media exchange. Cell samples were taken in duplicate for real-time QPCR analysis at the end of the three days of stage 3 (or about day 8) and again at after stage 4 (or about day 14).

[10] = morphology, alkaline phosphatase activity

COc1cc(/C=C(\C#N)C(N)=O)cc(CSc2nc3ccccc3s2)c1O [AG825]
cell death [1]: without widespread cell death | proliferation of hESCs ([1]; 50 μM): significantly inhibited proliferation | autophosphorylation of ErbB2 at tyrosine-1248 [2]: inhibited autophosphorylation of ErbB2 at tyrosine-1248; also recorded: inhibits ErbB2 Y1248 phosphorylation

CC(C)(C)c1cc(/C=C(\C#N)C(N)=S)cc(C(C)(C)C)c1O [AG879]
proliferation ([3]; 20 μM, 8 days): may have slowed proliferation | cell growth ([3]; 50 μM, 8 days): substantially inhibited cell growth | concentration required to inhibit proliferation, mESCs relative to BG01v cells ([3]; mESCs vs BG01v cells grown in defined conditions): ~10 × | differentiation of mESCs grown in inhibitor [3, 10]: did not appear to differentiate | cell growth ([4]; 5 μM, 5 days): substantially inhibited cell growth; also recorded: substantially slowed cell growth | cell death ([4]; 20 μM): caused cell death | differentiation of cultures grown in inhibitor [4, 10]: did not appear to differentiate

COc1cc2ncnc(Nc3cccc(Cl)c3)c2cc1OC [AG1478]
effect on cell proliferation ([3]; 1-50 μM, 8 days, 10% FBS, 10% KSR, LIF): no apparent affect on cell proliferation; also recorded: did not overtly inhibit proliferation | effect on cell proliferation ([4]; 50 nM-20 μM, 5 days): neither DMSO nor AG1478 (50 nM-20 μM) had an apparent affect on cell proliferation; also recorded: did not appear to affect proliferation

C[C@@H](N)[C@H]1CC[C@H](C(=O)Nc2ccncc2)CC1 [Y27632]
yield of cells generated by day 5 [5]: increased the yield of cells | cell survival [6]: supported cell survival | initial survival and aggregation of hESCs in suspension culture ([7]; 10 μM, compared to medium without inhibitor): much larger aggregates were formed; also recorded: enhanced initial survival and aggregation of hESCs; also recorded: enhancement of hESC aggregation | cell number when the aggregates were split again ([7]; Expt. A, compared to cultures without inhibitor): almost twice as many cells were observed | differentiation state, RT-PCR of pluripotency markers ([7]; suspension culture in the presence of Y27632): remained undifferentiated

IGF1: insulin-like growth factor
expansion of hESC cultures [8]: support the expansion of hESC cultures

insulin: protein that binds to the insulin receptor
expansion of hESC cultures [8]: do not

B1: noggin: recombinant human Noggin, BMP antagonist (protein, UniProt Q13253 28-232, looked up)
Noggin: QHYLHIRPAPSDNLPLVDLIEHPDPIFDPKEKDLNETLLRSLLGGHYDPGFMATSPPEDRPGGGGGAAGGAEDLAELDQLLRQRPSGAMPSEIKGLEFSEGLAQGKKQRLSKKLRRKLQMWLWSQTFCPVLYAWNDLGSRFWPRYVKVGSCFSKRSCSVPEGMVCKPSKSVHLTVLRWRCQRRGGQRCGWIPIQYPIISECKCSC
endocrine progenitor cell types, expression of NGN3 and NKX2-2 [9]: reduced expression of NGN3 and NKX2-2
